Results published in patent US20080009418A1, “Selective Inhibitors” (Alchemia LTD., priority 2004, published 2008).

Tests used:
[1] = target: T1, Human μ-opioid (MOP) (Homo sapiens, UniProt P35372); experiment: Radioligand binding, human μ-opioid (MOP) membranes, FlashPlate, [3H]-Naloxone; conditions: compound at 10 μM
T1 construct: purchased Perkin Elmer Biosignal
How it was run: (§1)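 Cloned human receptor membranes were coated onto FlashPlate wells and incubated with radioligand and compound (added from a 0.5 mM DMSO daughter plate) for 1 hour at room temperature in the dark. Scintillation counting gave percent inhibition, with DMSO defining total and reference ligand defining non-specific binding.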

[2] = target: T2, Human melanin-concentrating hormone (MCH1) (Homo sapiens, UniProt Q99705); experiment: Radioligand binding, human melanin-concentrating hormone MCH1 membranes, FlashPlate, [125I]-S36057; conditions: compound at 10 μM; for A6: inhibition of radioligand binding, human melanin-concentrating hormone (MCH1): [125I]-S36057
T2 construct: purchased Perkin Elmer Biosignal
How it was run: as §1

[3] = target: T3, Human Melanocortin (MC4) (Homo sapiens, UniProt P32245); experiment: Radioligand binding, human melanocortin MC4 membranes, FlashPlate, [125I]-NDP-αMSH; conditions: compound at 10 μM
T3 construct: purchased Perkin Elmer Biosignal
How it was run: as §1

[4] = target: T4, Human neuropeptide Y (NPY-Y1) (Homo sapiens, UniProt P25929); experiment: Radioligand binding, human neuropeptide Y NPY-Y1 membranes, FlashPlate, [125I]-PYY; conditions: compound at 10 μM
T4 construct: purchased Perkin Elmer Biosignal
T4 sequence (P25929 1-384): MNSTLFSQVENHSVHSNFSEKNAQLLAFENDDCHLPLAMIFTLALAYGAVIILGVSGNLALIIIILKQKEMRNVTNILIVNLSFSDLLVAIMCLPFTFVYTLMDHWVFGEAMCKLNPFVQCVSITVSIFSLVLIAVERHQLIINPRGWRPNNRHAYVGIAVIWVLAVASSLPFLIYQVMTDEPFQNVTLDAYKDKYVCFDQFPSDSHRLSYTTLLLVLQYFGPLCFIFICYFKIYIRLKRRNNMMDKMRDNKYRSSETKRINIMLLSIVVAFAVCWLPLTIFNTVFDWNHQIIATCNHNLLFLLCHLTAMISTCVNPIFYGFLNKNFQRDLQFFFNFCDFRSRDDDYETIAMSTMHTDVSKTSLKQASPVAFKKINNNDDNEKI
How it was run: as §1

[5] = target: T5, Human opioid (ORL1) (Homo sapiens, UniProt P41146); experiment: Radioligand binding, human opioid ORL1 membranes, FlashPlate, [125I]-Nociceptin; conditions: compound at 10 μM
T5 construct: purchased Perkin Elmer Biosignal
How it was run: as §1

[6] = target: T6, Human δ-opioid (DOP) (Homo sapiens, UniProt P41143); experiment: Radioligand binding, human δ-opioid (DOP) membranes, FlashPlate, [3H]-Bremazocine; conditions: compound at 10 μM
T6 construct: purchased Perkin Elmer Biosignal
How it was run: as §1

[7] = target: T7, Human Melanocortin (MC3) (Homo sapiens, UniProt P41968); experiment: Radioligand binding, human melanocortin MC3 membranes, FlashPlate, [125I]-NDP-αMSH; conditions: compound at 10 μM
T7 construct: purchased Perkin Elmer Biosignal
How it was run: as §1

[8] = target: T8, Mouse urotensin (mUR2) (Mus musculus, UniProt Q8VIH9); experiment: Radioligand binding, mouse urotensin mUR2 membranes, FlashPlate, [125I]-Urotensin II; conditions: compound at 10 μM
T8 construct: purchased Perkin Elmer Biosignal
T8 sequence (Q8VIH9 1-385): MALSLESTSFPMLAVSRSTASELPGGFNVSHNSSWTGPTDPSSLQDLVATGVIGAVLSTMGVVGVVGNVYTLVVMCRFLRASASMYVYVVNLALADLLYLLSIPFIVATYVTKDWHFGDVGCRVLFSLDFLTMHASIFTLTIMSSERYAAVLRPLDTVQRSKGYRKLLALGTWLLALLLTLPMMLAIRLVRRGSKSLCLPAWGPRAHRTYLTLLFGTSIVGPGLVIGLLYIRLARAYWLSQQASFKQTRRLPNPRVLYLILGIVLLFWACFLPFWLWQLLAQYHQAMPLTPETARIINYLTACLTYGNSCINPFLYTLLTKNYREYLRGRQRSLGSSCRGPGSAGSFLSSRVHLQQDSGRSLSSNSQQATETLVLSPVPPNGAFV
How it was run: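 Cloned mouse urotensin (mUR2) receptor membranes from Perkin Elmer Biosignal were immobilized in FlashPlate microplates using a proprietary coating. Each well got 19.5 μl buffer, then 0.5 μl of DMSO, reference ligand, or compound. Adding 5 μl of [125I]-Urotensin II, diluted to 5× final concentration in binding buffer, started binding. Plates were sealed with TopSeal-A and incubated 1 hour at room temperature in the dark. Wells were counted for 30 seconds each on a TopCount after a 60-second delay, and percentage inhibition was calculated.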

[9] = target: T9, Human neurokinin (NK1) (Homo sapiens, UniProt P25103); experiment: Radioligand binding, human neurokinin NK1 membranes, filtration, [125I]-Substance P; conditions: compound at 10 μM
T9 construct: purchased Perkin Elmer Biosignal
How it was run: (§2)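 Percent inhibition of radioligand binding measured on recombinant human membranes: NK1 with [125I]-Substance P, KOP with [3H]-Diprenorphine. Incubation 1 h at room temperature, then harvest onto 0.3% PEI-soaked filters, cold Tris-HCl pH 7.4 washes and scintillation counting; non-specific binding from reference ligand wells.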

[10] = target: T10, Human κ-Opioid (KOP) (Homo sapiens, UniProt P41145); experiment: Radioligand binding, human κ-opioid (KOP) membranes, filtration, [3H]-Diprenorphine; conditions: compound at 10 μM
T10 construct: purchased Perkin Elmer Biosignal
How it was run: as §2

[11] = target: T11, Human melanocortin (MC5) (Homo sapiens, UniProt P33032); experiment: Radioligand binding, human melanocortin MC5 membranes, FlashPlate, [125I]-NDP-αMSH; conditions: compound at 10 μM
T11 construct: purchased Perkin Elmer Biosignal
How it was run: as §1

T11 sequence (P33032 whole entry): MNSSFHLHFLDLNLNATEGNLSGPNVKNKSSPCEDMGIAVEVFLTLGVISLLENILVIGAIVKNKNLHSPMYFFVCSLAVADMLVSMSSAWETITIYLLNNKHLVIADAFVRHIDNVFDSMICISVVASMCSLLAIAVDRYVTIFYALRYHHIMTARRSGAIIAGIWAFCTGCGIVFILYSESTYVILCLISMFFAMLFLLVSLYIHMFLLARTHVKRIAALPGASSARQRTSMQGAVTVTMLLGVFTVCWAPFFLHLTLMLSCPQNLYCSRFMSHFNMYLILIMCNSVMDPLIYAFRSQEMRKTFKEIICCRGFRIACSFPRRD
T5 sequence (P41146 whole entry): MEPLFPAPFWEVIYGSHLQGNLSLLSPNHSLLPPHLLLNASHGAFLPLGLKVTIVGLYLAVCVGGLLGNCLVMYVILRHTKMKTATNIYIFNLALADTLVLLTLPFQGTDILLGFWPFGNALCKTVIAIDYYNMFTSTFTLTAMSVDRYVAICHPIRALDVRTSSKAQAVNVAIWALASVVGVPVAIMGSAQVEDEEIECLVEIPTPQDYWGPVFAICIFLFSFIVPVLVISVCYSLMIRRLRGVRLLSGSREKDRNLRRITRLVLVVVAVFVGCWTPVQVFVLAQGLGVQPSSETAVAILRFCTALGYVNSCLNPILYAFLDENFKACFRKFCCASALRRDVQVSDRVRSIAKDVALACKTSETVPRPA
T1 sequence (P35372 whole entry): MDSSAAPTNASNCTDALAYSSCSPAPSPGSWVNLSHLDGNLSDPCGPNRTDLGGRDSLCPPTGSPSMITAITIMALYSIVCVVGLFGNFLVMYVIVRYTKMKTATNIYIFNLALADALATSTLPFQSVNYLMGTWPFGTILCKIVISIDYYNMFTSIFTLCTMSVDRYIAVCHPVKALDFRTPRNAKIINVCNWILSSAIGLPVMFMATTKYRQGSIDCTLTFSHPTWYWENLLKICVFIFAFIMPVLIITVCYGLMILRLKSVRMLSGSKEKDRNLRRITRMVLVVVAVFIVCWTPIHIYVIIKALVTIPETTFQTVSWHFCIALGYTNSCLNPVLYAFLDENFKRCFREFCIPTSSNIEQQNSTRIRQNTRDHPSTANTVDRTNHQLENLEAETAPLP
T9 sequence (P25103 whole entry): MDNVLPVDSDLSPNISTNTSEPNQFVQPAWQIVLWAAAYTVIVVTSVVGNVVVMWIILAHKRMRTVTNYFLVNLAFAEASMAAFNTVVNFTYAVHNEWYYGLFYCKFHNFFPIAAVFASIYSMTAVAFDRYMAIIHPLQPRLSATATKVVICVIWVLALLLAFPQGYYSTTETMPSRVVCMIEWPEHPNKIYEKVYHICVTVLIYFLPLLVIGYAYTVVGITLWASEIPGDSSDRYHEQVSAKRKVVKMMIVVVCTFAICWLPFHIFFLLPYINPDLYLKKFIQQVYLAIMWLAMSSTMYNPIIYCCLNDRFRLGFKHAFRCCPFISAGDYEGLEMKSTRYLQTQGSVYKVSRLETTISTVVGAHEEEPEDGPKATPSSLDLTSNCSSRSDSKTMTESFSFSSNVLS
T6 sequence (P41143 whole entry): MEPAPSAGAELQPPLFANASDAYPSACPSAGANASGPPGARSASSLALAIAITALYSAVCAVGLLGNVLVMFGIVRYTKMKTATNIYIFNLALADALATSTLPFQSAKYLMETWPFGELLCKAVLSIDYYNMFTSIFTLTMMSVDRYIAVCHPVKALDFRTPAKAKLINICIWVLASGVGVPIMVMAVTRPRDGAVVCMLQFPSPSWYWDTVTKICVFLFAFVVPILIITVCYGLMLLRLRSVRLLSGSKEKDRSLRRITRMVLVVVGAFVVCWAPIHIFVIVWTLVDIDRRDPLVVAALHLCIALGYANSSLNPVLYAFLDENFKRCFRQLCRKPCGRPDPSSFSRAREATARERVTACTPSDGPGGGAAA
T10 sequence (P41145 whole entry): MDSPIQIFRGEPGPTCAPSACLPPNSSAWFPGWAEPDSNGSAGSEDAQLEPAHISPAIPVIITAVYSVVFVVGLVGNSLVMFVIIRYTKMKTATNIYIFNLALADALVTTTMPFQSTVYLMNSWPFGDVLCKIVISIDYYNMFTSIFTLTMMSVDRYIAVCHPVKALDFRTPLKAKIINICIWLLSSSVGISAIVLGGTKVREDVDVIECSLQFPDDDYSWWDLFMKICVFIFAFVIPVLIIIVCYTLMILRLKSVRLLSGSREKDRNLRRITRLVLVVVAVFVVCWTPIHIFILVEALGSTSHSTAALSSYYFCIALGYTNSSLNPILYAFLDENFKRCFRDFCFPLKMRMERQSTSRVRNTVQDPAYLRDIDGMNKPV
T2 sequence (Q99705 whole entry): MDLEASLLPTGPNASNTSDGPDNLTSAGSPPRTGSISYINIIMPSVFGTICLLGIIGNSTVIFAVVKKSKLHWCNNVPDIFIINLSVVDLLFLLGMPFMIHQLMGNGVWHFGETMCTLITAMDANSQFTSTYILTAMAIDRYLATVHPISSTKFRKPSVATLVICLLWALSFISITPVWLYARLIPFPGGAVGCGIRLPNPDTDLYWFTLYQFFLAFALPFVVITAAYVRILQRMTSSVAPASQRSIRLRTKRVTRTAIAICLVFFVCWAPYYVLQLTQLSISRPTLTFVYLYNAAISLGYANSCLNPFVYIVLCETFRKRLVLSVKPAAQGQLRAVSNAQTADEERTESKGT
T3 sequence (P32245 whole entry): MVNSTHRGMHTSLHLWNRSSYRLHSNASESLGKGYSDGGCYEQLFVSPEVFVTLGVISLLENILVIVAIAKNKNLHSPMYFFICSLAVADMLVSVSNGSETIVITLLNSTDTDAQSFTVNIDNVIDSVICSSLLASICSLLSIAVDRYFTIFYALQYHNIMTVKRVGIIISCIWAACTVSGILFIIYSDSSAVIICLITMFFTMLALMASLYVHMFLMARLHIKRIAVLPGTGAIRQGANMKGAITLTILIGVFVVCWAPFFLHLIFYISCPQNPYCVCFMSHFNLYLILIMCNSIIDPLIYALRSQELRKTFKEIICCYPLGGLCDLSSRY
T7 sequence (P41968 whole entry): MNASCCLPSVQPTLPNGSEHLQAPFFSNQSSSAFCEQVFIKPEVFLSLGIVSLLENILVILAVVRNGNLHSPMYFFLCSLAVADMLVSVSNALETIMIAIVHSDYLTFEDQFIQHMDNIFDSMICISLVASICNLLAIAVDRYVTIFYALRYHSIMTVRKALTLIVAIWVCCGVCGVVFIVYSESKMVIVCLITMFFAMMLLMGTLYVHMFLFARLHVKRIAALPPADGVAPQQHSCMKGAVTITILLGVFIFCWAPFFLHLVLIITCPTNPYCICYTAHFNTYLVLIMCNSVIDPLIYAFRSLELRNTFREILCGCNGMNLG

Structure (SMILES)	A7: inhibition of radioligand binding, human μ-opioid (MOP) ([1]; [3H]-Naloxone)	A6: inhibition of radioligand binding, human melanin-concentrating hormone (MCH1) [2]	A4: inhibition of radioligand binding, human melanocortin (MC4) ([3]; [125I]-NDP-αMSH)	A9: inhibition of radioligand binding, human neuropeptide Y (NPY-Y1) ([4]; [125I]-PYY)	A10: inhibition of radioligand binding, human opioid (ORL1) ([5]; [125I]-Nociceptin)	A1: inhibition of radioligand binding, human δ-opioid (DOP) ([6]; [3H]-Bremazocine)	A3: inhibition of radioligand binding, human melanocortin (MC3) ([7]; [125I]-NDP-αMSH)	A11: inhibition of radioligand binding, mouse urotensin (mUR2) ([8]; [125I]-Urotensin II)	A8: inhibition of radioligand binding, human neurokinin (NK1) ([9]; [125I]-Substance P)	A2: inhibition of radioligand binding, human κ-opioid (KOP) ([10]; [3H]-Diprenorphine)	A5: inhibition of radioligand binding, human melanocortin (MC5) ([11]; [125I]-NDP-αMSH)	further results
COCC1OC(NC(=O)Cc2ccccc2)C(NC(=O)CCCN)C(OCc2ccc3ccccc3c2)C1O (stereo not shown) [compound 543]	− (“−” indicates less than 50% inhibition at 10 μM)	− (“−” indicates less than 50% inhibition at 10 μM)	− (“−” indicates less than 50% inhibition at 10 μM)	− (“−” indicates less than 50% inhibition at 10 μM)	− (“−” indicates less than 50% inhibition at 10 μM)	− (“−” indicates less than 50% inhibition at 10 μM)	− (“−” indicates less than 50% inhibition at 10 μM)	− (“−” indicates less than 50% inhibition at 10 μM)	+ (“+” indicates greater than 50% inhibition at 10 μM)	− (“−” indicates less than 50% inhibition at 10 μM)	− (“−” indicates less than 50% inhibition at 10 μM)	–
NCCCC(=O)NC1C(OCc2ccc(Cl)cc2)OC(COCc2ccc(Cl)cc2)C(O)C1OCc1ccc(Cl)cc1 (single isomer, unassigned) [compound 493]	− (“−” indicates less than 50% inhibition at 10 μM)	+ (“+” indicates greater than 50% inhibition at 10 μM)	+ (“+” indicates greater than 50% inhibition at 10 μM)	− (“−” indicates less than 50% inhibition at 10 μM)	+ (“+” indicates greater than 50% inhibition at 10 μM)	− (“−” indicates less than 50% inhibition at 10 μM)	–	− (“−” indicates less than 50% inhibition at 10 μM)	+ (“+” indicates greater than 50% inhibition at 10 μM)	− (“−” indicates less than 50% inhibition at 10 μM)	+ (“+” indicates greater than 50% inhibition at 10 μM)	A3: inhibition of radioligand binding, human melanocortin (MC3) ([7]; [125I]-NDP-αMSH, 10 µM): − (“−” indicates less than 50% inhibition at 10 μM)
COC[C@H]1OC(OCc2ccc(-c3ccccc3)cc2)[C@H](NC(=O)CCCN)[C@@H](OCc2ccc3ccccc3c2)[C@@H]1O (stereo partly shown) [compound 5]	–	–	–	–	–	–	–	–	–	–	–	A7 radioligand binding inhibition ([1]; human μ-opioid (MOP) membranes): − (“−” indicates less than 50% inhibition at 10 μM); A6 radioligand binding inhibition ([2]; human MCH1 membranes): − (“−” indicates less than 50% inhibition at 10 μM); A4 radioligand binding inhibition ([3]; human melanocortin MC4 membranes): − (“−” indicates less than 50% inhibition at 10 μM); A9 radioligand binding inhibition ([4]; human NPY-Y1 membranes): − (“−” indicates less than 50% inhibition at 10 μM); A10 radioligand binding inhibition ([5]; human ORL1 membranes): − (“−” indicates less than 50% inhibition at 10 μM); A1 radioligand binding inhibition ([6]; human δ-opioid (DOP) membranes): − (“−” indicates less than 50% inhibition at 10 μM); A3 radioligand binding inhibition ([7]; human melanocortin MC3 membranes): − (“−” indicates less than 50% inhibition at 10 μM); A11 radioligand binding inhibition ([8]; mouse urotensin mUR2 membranes): − (“−” indicates less than 50% inhibition at 10 μM); A8 radioligand binding inhibition ([9]; human neurokinin NK1 membranes): + (“+” indicates greater than 50% inhibition at 10 μM); A2 radioligand binding inhibition ([10]; human κ-opioid (KOP) membranes): − (“−” indicates less than 50% inhibition at 10 μM); A5 radioligand binding inhibition ([11]; human melanocortin MC5 membranes): + (“+” indicates greater than 50% inhibition at 10 μM)
N=C(N)NCCCC(=O)NC1C(OCc2ccc(-c3ccccc3)cc2)OC(COCc2ccccc2)C(O)C1OCc1ccccc1 (stereo not shown) [compound 435]	–	–	–	–	–	–	–	–	–	–	–	A7: inhibition of radioligand binding ([1]; [3H]-Naloxone, human MOP membranes): + (“+” indicates greater than 50% inhibition at 10 μM); A6: inhibition of radioligand binding ([2]; [125I]-S36057, human MCH1 membranes): + (“+” indicates greater than 50% inhibition at 10 μM); A4: inhibition of radioligand binding ([3]; [125I]-NDP-αMSH, human MC4 membranes): + (“+” indicates greater than 50% inhibition at 10 μM); A9: inhibition of radioligand binding ([4]; [125I]-PYY, human NPY-Y1 membranes): − (“−” indicates less than 50% inhibition at 10 μM); A10: inhibition of radioligand binding ([5]; [125I]-Nociceptin, human ORL1 membranes): + (“+” indicates greater than 50% inhibition at 10 μM); A1: inhibition of radioligand binding ([6]; [3H]-Bremazocine, human DOP membranes): − (“−” indicates less than 50% inhibition at 10 μM); A3: inhibition of radioligand binding ([7]; [125I]-NDP-αMSH, human MC3 membranes): + (“+” indicates greater than 50% inhibition at 10 μM); A11: inhibition of radioligand binding ([8]; [125I]-Urotensin II, mouse mUR2 membranes): − (“−” indicates less than 50% inhibition at 10 μM); A8: inhibition of radioligand binding ([9]; [125I]-Substance P, human NK1 membranes): + (“+” indicates greater than 50% inhibition at 10 μM); A2: inhibition of radioligand binding ([10]; [3H]-Diprenorphine, human KOP membranes): + (“+” indicates greater than 50% inhibition at 10 μM); A5: inhibition of radioligand binding ([11]; [125I]-NDP-αMSH, human MC5 membranes): + (“+” indicates greater than 50% inhibition at 10 μM)
N=C(N)NCCC(=O)N[C@H]1C(OCc2ccc(Cl)cc2)O[C@H](COCc2ccc3ccccc3c2)[C@@H](O)[C@@H]1OCc1ccc(Cl)cc1 (stereo partly shown) [compound 523]	–	+ (“+” indicates greater than 50% inhibition at 10 μM)	+ (“+” indicates greater than 50% inhibition at 10 μM)	–	+ (“+” indicates greater than 50% inhibition at 10 μM)	− (“−” indicates less than 50% inhibition at 10 μM)	+ (“+” indicates greater than 50% inhibition at 10 μM)	− (“−” indicates less than 50% inhibition at 10 μM)	+ (“+” indicates greater than 50% inhibition at 10 μM)	+ (“+” indicates greater than 50% inhibition at 10 μM)	+ (“+” indicates greater than 50% inhibition at 10 μM)	A7: inhibition of radioligand binding, human μ-opioid (MOP) ([1]; [3H]-Naloxone, 10 µM): + (“+” indicates greater than 50% inhibition at 10 μM); A9: inhibition of radioligand binding, human neuropeptide Y (NPY-Y1) ([4]; [125I]-PYY, 10 µM): − (“−” indicates less than 50% inhibition at 10 μM)
